Assays:
Details in all cases: exposure time: 72 h
[1] = tested on: E57 (patient-derived glioblastoma stem cells of mesenchymal subtype); experiment: surviving fraction (nuclei count normalised to DMSO); higher = more cells surviving (less toxic)
[2] = tested on: E21 (patient-derived glioblastoma stem cells of mesenchymal subtype); experiment: as above
[3] = tested on: FT3469 (normal neural stem cell line); experiment: as above
[4] = tested on: E13 (patient-derived glioblastoma stem cells of classical subtype); experiment: as above
[5] = tested on: E28 (patient-derived glioblastoma stem cells of classical subtype); experiment: as above
[6] = tested on: E31 (patient-derived glioblastoma stem cells of proneural subtype); experiment: as above
[7] = tested on: E34 (patient-derived glioblastoma stem cells of proneural subtype); experiment: as above
[8] = tested on: E57; experiment: phenotypic distance (Euclidean, principal components) from DMSO controls (arbitrary units); higher = stronger morphological change
[9] = tested on: E21; experiment: as above
[10] = tested on: FT3469; experiment: as above
[11] = tested on: E13; experiment: as above
[12] = tested on: E28; experiment: as above
[13] = tested on: E31; experiment: as above
[14] = tested on: E34; experiment: as above
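Wherever phenotypic distance (Euclidean, principal components) from DMSO controls is given: cell Painting imaging in 384-well plates, CellProfiler features reduced to at least 20 principal components, Euclidean distance versus same-plate DMSO vehicle wells (0.1% v/v), median over six images per well.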
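Wherever surviving fraction (nuclei count normalised to DMSO) is given: nuclei counted by high-content imaging of Hoechst-stained cells in laminin-coated 384-well plates, relative to 0.1% DMSO vehicle wells, with staurosporine as cell-death control.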

OCCN1CCN(CCCN2c3ccccc3Sc3ccc(Cl)cc32)CC1 [Perphenazine]
Details	phenotypic distance	surviving fraction
[1], 4.1 nM	–	0.964
[1], 12.3 nM	–	0.957
[1], 37 nM	–	1
[1], 111.1 nM	–	1.1
[1], 333.3 nM	–	1.15
[1], 1000 nM	–	1.12
[1], 3000 nM	–	1.13
[2], 4.1 nM	–	0.925
[2], 12.3 nM	–	1.06
[2], 37 nM	–	1.03
[2], 111.1 nM	–	1.05
[2], 333.3 nM	–	1.11
[2], 1000 nM	–	0.954
[2], 3000 nM	–	0.73
[3], 4.1 nM	–	1.11
[3], 12.3 nM	–	0.955
[3], 37 nM	–	1.01
[3], 111.1 nM	–	1.04
[3], 333.3 nM	–	0.866
[3], 1000 nM	–	0.938
[3], 3000 nM	–	1.03
[4], 4.1 nM	–	0.93
[4], 12.3 nM	–	0.94
[4], 37 nM	–	0.849
[4], 111.1 nM	–	0.98
[4], 333.3 nM	–	0.964
[4], 1000 nM	–	1.05
[4], 3000 nM	–	0.837
[5], 4.1 nM	–	1.09
[5], 12.3 nM	–	1.12
[5], 37 nM	–	1.07
[5], 111.1 nM	–	1.19
[5], 333.3 nM	–	0.953
[5], 1000 nM	–	1.09
[5], 3000 nM	–	0.848
[6], 4.1 nM	–	0.97
[6], 12.3 nM	–	1.07
[6], 37 nM	–	1.08
[6], 111.1 nM	–	1.14
[6], 333.3 nM	–	1.18
[6], 1000 nM	–	1.24
[6], 3000 nM	–	0.912
[7], 4.1 nM	–	0.951
[7], 12.3 nM	–	1.05
[7], 37 nM	–	1.1
[7], 111.1 nM	–	1.05
[7], 333.3 nM	–	0.994
[7], 1000 nM	–	1.19
[7], 3000 nM	–	0.986
[8], 4.1 nM	1.04	–
[8], 12.3 nM	0.836	–
[8], 37 nM	0.782	–
[8], 111.1 nM	0.979	–
[8], 333.3 nM	0.789	–
[8], 1000 nM	1.66	–
[8], 3000 nM	2.41	–
[9], 4.1 nM	0.988	–
[9], 12.3 nM	0.761	–
[9], 37 nM	0.693	–
[9], 111.1 nM	1.08	–
[9], 333.3 nM	0.995	–
[9], 1000 nM	0.917	–
[9], 3000 nM	2.66	–
[10], 4.1 nM	0.72	–
[10], 12.3 nM	0.971	–
[10], 37 nM	0.546	–
[10], 111.1 nM	0.602	–
[10], 333.3 nM	0.84	–
[10], 1000 nM	0.79	–
[10], 3000 nM	1.58	–
[11], 4.1 nM	2.64	–
[11], 12.3 nM	2.33	–
[11], 37 nM	3.22	–
[11], 111.1 nM	0.78	–
[11], 333.3 nM	1.14	–
[11], 1000 nM	3.07	–
[11], 3000 nM	3.61	–
[12], 4.1 nM	0.747	–
[12], 12.3 nM	0.879	–
[12], 37 nM	0.787	–
[12], 111.1 nM	0.725	–
[12], 333.3 nM	0.749	–
[12], 1000 nM	0.938	–
[12], 3000 nM	1.93	–
[13], 4.1 nM	1.23	–
[13], 12.3 nM	0.866	–
[13], 37 nM	0.873	–
[13], 111.1 nM	1.86	–
[13], 333.3 nM	1.75	–
[13], 1000 nM	2.15	–
[13], 3000 nM	3.18	–
[14], 4.1 nM	1.05	–
[14], 12.3 nM	0.866	–
[14], 37 nM	0.902	–
[14], 111.1 nM	2.15	–
[14], 333.3 nM	1.04	–
[14], 1000 nM	1.51	–
[14], 3000 nM	1.42	–
